# Test results: ChEMBL document CHEMBL3351479, “Novel acylureidoindolin-2-one derivatives as dual Aurora B/FLT3 inhibitors for the treatment of acute myeloid leukemia” (Eur J Med Chem, 2014)
# Legend:
# [1] = test system: MV4-11; test: Cytotoxicity against human MV4-11 cells assessed as cell viability after 48 hrs by MTT assay; type: functional, cell-based; conditions: Homo sapiens, MV4-11, 48 h
# [2] = test system: MOLM-13; test: Cytotoxicity against human MOLM13 cells assessed as cell viability after 48 hrs by MTT assay; type: functional, cell-based; conditions: MOLM-13, 48 h
# [3] = test system: THP-1; test: Cytotoxicity against human THP1 cells assessed as cell viability after 48 hrs by MTT assay; type: functional, cell-based; conditions: Homo sapiens, THP-1, 48 h
# [4] = Cytotoxicity against human HL60 cells assessed as cell viability after 48 hrs by MTT assay; type: functional, cell-based; conditions: HL-60, 48 h
# [5] = molecular target: Aurora kinase B (Homo sapiens, UniProt Q96GD4); test: Inhibition of Aurora B (unknown origin) using HLRRASLG substrate at 1 uM
# Chain of Aurora kinase B (Q96GD4 whole entry): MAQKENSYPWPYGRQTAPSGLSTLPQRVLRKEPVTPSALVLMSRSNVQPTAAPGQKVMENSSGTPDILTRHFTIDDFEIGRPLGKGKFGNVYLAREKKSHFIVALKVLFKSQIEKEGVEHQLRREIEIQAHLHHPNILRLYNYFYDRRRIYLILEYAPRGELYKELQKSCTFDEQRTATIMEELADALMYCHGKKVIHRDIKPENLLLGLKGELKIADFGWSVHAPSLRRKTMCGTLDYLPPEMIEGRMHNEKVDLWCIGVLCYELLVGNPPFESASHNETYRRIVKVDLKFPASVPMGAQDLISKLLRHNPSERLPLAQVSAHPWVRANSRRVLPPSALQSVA
# [6] = molecular target: Receptor-type tyrosine-protein kinase FLT3 (Homo sapiens) (UniProt P36888); test: Inhibition of FLT3 (unknown origin) using EAIYAAPFAKKK substrate at 1 uM
# [7] = test system: MV4-11; test: Cytotoxicity against human MV4-11 cells assessed as cell viability at 1 uM after 48 hrs by MTT assay; type: functional; conditions: MV4-11, 48 h, read-out: Activity
# [8] = test system: MOLM-13; test: Cytotoxicity against human MOLM13 cells assessed as cell viability at 1 uM after 48 hrs by MTT assay; type: functional; conditions: MOLM-13, 48 h, read-out: Activity
# [9] = test system: THP-1; test: Cytotoxicity against human THP1 cells assessed as cell viability at 1 uM after 48 hrs by MTT assay; type: functional; conditions: THP-1, 48 h, read-out: Activity
# [10] = Cytotoxicity against human HL60 cells assessed as cell viability at 1 uM after 48 hrs by MTT assay; type: functional; conditions: HL-60, 48 h, read-out: Activity
# [11] = molecular target: T1, Receptor-type tyrosine-protein kinase FLT3 (Homo sapiens, UniProt P36888); test: Inhibition of FLT3 (unknown origin) using EAIYAAPFAKKK substrate
# T1 sequence (P36888 whole entry): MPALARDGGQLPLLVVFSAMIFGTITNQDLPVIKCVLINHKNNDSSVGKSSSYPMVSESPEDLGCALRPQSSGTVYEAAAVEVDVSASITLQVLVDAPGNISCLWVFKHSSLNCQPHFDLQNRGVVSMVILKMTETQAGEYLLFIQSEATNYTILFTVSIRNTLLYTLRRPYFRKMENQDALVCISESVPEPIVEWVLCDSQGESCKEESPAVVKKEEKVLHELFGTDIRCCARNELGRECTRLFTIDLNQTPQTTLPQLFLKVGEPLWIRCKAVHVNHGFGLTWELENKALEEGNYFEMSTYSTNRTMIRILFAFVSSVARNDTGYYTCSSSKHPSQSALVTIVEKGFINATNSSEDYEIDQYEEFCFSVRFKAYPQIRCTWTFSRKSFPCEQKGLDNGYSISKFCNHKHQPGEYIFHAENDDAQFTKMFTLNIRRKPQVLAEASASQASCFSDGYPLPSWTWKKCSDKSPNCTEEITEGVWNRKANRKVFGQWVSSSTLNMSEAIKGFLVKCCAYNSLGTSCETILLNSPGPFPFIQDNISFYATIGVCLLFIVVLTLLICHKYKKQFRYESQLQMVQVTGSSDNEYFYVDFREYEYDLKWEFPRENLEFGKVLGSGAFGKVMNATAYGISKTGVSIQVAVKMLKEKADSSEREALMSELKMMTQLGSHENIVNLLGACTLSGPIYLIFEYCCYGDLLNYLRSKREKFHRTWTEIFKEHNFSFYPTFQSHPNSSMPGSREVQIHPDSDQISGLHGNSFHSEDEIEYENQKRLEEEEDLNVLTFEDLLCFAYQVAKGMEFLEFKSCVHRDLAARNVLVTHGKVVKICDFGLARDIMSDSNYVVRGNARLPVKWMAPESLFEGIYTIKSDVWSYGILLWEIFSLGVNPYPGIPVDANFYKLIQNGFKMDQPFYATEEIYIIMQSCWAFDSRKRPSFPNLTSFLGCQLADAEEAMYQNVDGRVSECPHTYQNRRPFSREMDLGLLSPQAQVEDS
inhibition [5],inhibition [6],IC50 [11],Compound,IC50 [1],IC50 [2],IC50 [3],IC50 [4],viability at 1 µM [7],viability at 1 µM [8],viability at 1 µM [9],viability at 1 µM [10]
44%,15%,–,COc1ccc(C(=O)NC(=O)Nc2ccc3c(c2)NC(=O)/C3=C/c2ccco2)cc1,> 500 nM,> 500 nM,> 500 nM,> 500 nM,70%,62%,74%,64%
7%,4%,–,COc1ccc(C(=O)NC(=O)Nc2ccc3c(c2)NC(=O)/C3=C/c2ccncc2)cc1,> 500 nM,> 500 nM,> 500 nM,> 500 nM,72%,65%,96%,95%
61%,34%,–,COc1ccc(C(=O)NC(=O)Nc2ccc3c(c2)NC(=O)/C3=C/c2ccccc2)cc1,> 500 nM,> 500 nM,> 500 nM,> 500 nM,64%,73%,76%,64%
–,–,–,COc1ccc(C(=O)NC(=O)Nc2ccc3c(c2)NC(=O)/C3=C\c2[nH]c(C)c(CC(=O)O)c2C)cc1,4.2 nM,3.1 nM,69 nM,8.1 nM,–,–,–,–
–,–,–,CCN(CC)CCNC(=O)c1c(C)[nH]c(/C=C2\C(=O)Nc3ccc(F)cc32)c1C [SUNITINIB],24.3 nM,17.7 nM,45.7 nM,36.8 nM,–,–,–,–
–,–,–,CN(C)c1ccc(C(=O)NC(=O)Nc2ccc3c(c2)NC(=O)/C3=C\c2ccc[nH]2)cc1,261 nM,260 nM,262 nM,269 nM,–,–,–,–
7%,7%,–,COc1ccc(C(=O)NC(=O)Nc2cccc3c2NC(=O)/C3=C\c2ccc[nH]2)cc1,> 500 nM,> 500 nM,> 500 nM,488 nM,78%,72%,53%,–
56%,43%,–,COc1ccc(/C=C2/C(=O)Nc3cc(NC(=O)NC(=O)c4ccc(OC)cc4)ccc32)cc1,228 nM,238 nM,382 nM,336 nM,–,–,–,–
–,–,–,COc1ccc(C(=O)NC(=O)Nc2cc3c(cc2F)/C(=C/c2[nH]c(C)c(C(=O)O)c2C)C(=O)N3)c(F)c1,35.9 nM,17.8 nM,76.3 nM,28.6 nM,–,–,–,–
–,–,–,COc1ccc(C(=O)NC(=O)Nc2ccc3c(c2)NC(=O)/C3=C\c2[nH]c(C)c(C(=O)NCCN(C)C)c2C)c(F)c1,8.1 nM,5.3 nM,63.7 nM,14.1 nM,–,–,–,–
–,–,–,COc1ccc(C(=O)NC(=O)Nc2ccc3c(c2)NC(=O)/C3=C\c2[nH]c(C)c(CCC(=O)N3CCN(C)CC3)c2C)c(F)c1,11 nM,9.2 nM,65 nM,15.7 nM,–,–,–,–
–,–,–,O=C(NC(=O)c1ccc(C(F)(F)F)cc1)Nc1ccc2c(c1)NC(=O)/C2=C\c1ccc[nH]1,191 nM,196 nM,326 nM,293 nM,–,–,–,–
–,–,–,Cc1ccc(C(=O)NC(=O)Nc2ccc3c(c2)NC(=O)/C3=C\c2ccc[nH]2)cc1,285 nM,212 nM,356 nM,301 nM,–,–,–,–
–,–,–,COc1ccc(C(=O)NC(=O)Nc2ccc3c(c2)NC(=O)/C3=C\c2[nH]c(C)cc2C)cc1,62.8 nM,42.8 nM,116 nM,45.8 nM,–,–,–,–
–,–,–,COc1ccc(C(=O)NC(=O)Nc2cc3c(cc2F)/C(=C/c2[nH]c(C)c(CCC(=O)O)c2C)C(=O)N3)c(F)c1,6.5 nM,2.3 nM,55.9 nM,8.9 nM,–,–,–,–
–,–,–,O=C(NC(=O)c1ccc(Cl)cc1)Nc1ccc2c(c1)NC(=O)/C2=C\c1ccc[nH]1,19.3 nM,19.1 nM,81.2 nM,21.6 nM,–,–,–,–
39%,–,–,COc1ccc(C(=O)NC(=O)Nc2ccc3c(c2)/C(=C/c2ccc[nH]2)C(=O)N3)cc1,256 nM,222 nM,373 nM,301 nM,–,–,–,–

inhibition [5],inhibition [6],IC50 [11],Compound,IC50 [1],IC50 [2],IC50 [3],IC50 [4],viability at 1 µM [7],viability at 1 µM [8],viability at 1 µM [9],viability at 1 µM [10]
–,–,–,COc1ccc(C(=O)NC(=O)Nc2ccc3c(c2)NC(=O)/C3=C\c2[nH]c(C)c(CCC(=O)O)c2C)c(F)c1,6.1 nM,4 nM,61.3 nM,16.7 nM,–,–,–,–
–,–,> 1000 nM,CCOC(=O)CCc1c(C)[nH]c(/C=C2\C(=O)Nc3cc(NC(=O)NC(=O)c4ccc(OC)cc4F)ccc32)c1C,15.1 nM,10.9 nM,53.9 nM,29.9 nM,–,–,–,–
59%,40%,–,COc1ccc(C(=O)NC(=O)Nc2ccc3c(c2)NC(=O)/C3=C/c2ccc(N(C)C)cc2)cc1,45.5 nM,42.5 nM,88.9 nM,50.4 nM,–,–,–,–
63%,–,> 1000 nM,COc1ccc(C(=O)NC(=O)Nc2ccc3c(c2)NC(=O)/C3=C/c2ccc(O)cc2)cc1,377 nM,351 nM,> 500 nM,485 nM,–,–,54%,–
–,–,–,O=C(NC(=O)c1ccc(Cl)c(Cl)c1)Nc1ccc2c(c1)NC(=O)/C2=C\c1ccc[nH]1,31.6 nM,29 nM,90.9 nM,35 nM,–,–,–,–
11%,–,–,COc1ccc(C(=O)NC(=O)Nc2cccc3c2/C(=C/c2ccc[nH]2)C(=O)N3)cc1,357 nM,303 nM,356 nM,334 nM,–,–,–,–
–,–,–,O=C(NC(=O)c1ccccc1F)Nc1ccc2c(c1)NC(=O)/C2=C\c1ccc[nH]1,234 nM,232 nM,331 nM,268 nM,–,–,–,–
–,–,> 1000 nM,COc1ccc(C(=O)NC(=O)Nc2cc3c(cc2F)/C(=C/c2[nH]c(C)c(CCC(=O)O)c2C)C(=O)N3)cc1,26.1 nM,30.1 nM,64.7 nM,28.8 nM,–,–,–,–
–,–,–,CCN(CC)CCNC(=O)c1c(C)[nH]c(/C=C2\C(=O)Nc3cc(NC(=O)NC(=O)c4ccc(OC)cc4F)ccc32)c1C,17.7 nM,12.9 nM,41.2 nM,20.3 nM,–,–,–,–
–,–,> 1000 nM,O=C(NC(=O)c1ccccc1)Nc1ccc2c(c1)NC(=O)/C2=C\c1ccc[nH]1,240 nM,238 nM,293 nM,250 nM,–,–,–,–
–,–,> 1000 nM,COc1cc(OC)cc(C(=O)NC(=O)Nc2ccc3c(c2)NC(=O)/C3=C\c2ccc[nH]2)c1,150 nM,114 nM,300 nM,251 nM,–,–,–,–
–,–,–,CCN(CCO)CCCOc1ccc2c(Nc3cc(CC(=O)Nc4cccc(F)c4)[nH]n3)ncnc2c1 [DEFOSBARASERTIB],8.6 nM,9.7 nM,25.1 nM,12.7 nM,–,–,–,–
–,–,–,COc1ccc(C(=O)NC(=O)Nc2ccc3c(c2)NC(=O)/C3=C\c2[nH]c(C)c(C(=O)N3CCOCC3)c2C)c(F)c1,16.8 nM,10.8 nM,102 nM,24 nM,–,–,–,–
–,–,–,COc1ccc(C(=O)NC(=O)Nc2ccc3c(c2)NC(=O)/C3=C\c2[nH]c(C)c(C(=O)N3CCN(C)CC3)c2C)c(F)c1,10.6 nM,6.9 nM,95.1 nM,15.7 nM,–,–,–,–
–,–,–,COc1ccc(C(=O)NC(=O)Nc2ccc3c(c2)NC(=O)/C3=C\c2[nH]c(C)c(CCC(=O)N3CCOCC3)c2C)c(F)c1,17.9 nM,16.1 nM,70.3 nM,31.2 nM,–,–,–,–
–,–,–,O=C(NC(=O)c1ccc(Cl)c(C(F)(F)F)c1)Nc1ccc2c(c1)NC(=O)/C2=C\c1ccc[nH]1,14.1 nM,11.1 nM,68.8 nM,23.2 nM,–,–,–,–
